From patent publication EP1151753B1, “PREVENTIVE AND THERAPEUTIC AGENTS FOR ARTERIOSCLEROSIS” (CCI CORPORATION, priority 1999, dated 2000) come the findings set out here.

In the assay the test system is WHHL rabbit model. Description: Evaluation of morbid alteration of aorta (Sudan dyeing), WHHL rabbit model. The following applies: WHHL rabbits. Type of assay: in vivo, WHHL type rabbits. From the text: 1. Animal used and feeding conditions In the test, female and male WHHL type rabbits (SPF: Kitayama Labels K.K.) which were eight weeks old at the time of arrival at the laboratory were subjected to quarantine and domestication and visually inspected as to the general condition and, after the absence of abnormality was confirmed, put to use. The body weights at the time of starting administration (at the age of nine weeks) were in the range of 1.5 - 1.9 kg in the case of male rabbits and in the range of 1.4 - 1.8 kg in the case of female rabbits. Throughout the entire duration of the test, the animals were raised as accommodated one each in hanger cages of aluminum installed on a stainless steel rack inside a clean feeding chamber set at a temperature in the range of 20 - 26°, a relative humidity in the range of 40 - 70%, a number of ventilations in the range of 10 - 20 turns/hour, and an illumination time within the range of 12 hours (7.00 - 19:00). […] The blood was centrifuged to separate blood serum and the blood serum was analyzed for the items shown in Table 5 by the use of an automatic analyzer (made by Hitachi. Ltd. and sold under the product code of "736-20"). The body weight of each rabbit was measured at the rate of once a week throughout the entire duration of the administration. […]

With `Cc1c(C)c2c(c(C)c1O)CCC(C)(C[C@H]1O[C@H](CO)[C@@H](O)[C@H](O)[C@H]1O)O2` (stereo partly drawn) [TMG, 2-(α-D-glucopyranosyl)methyl-2,5,7,8-tetramethyl chroman-6-ol], the “occurrence of the atherosclerosis” value (TMG 800 mg/head/day for 27 weeks) was “significantly repressing”. Also, for the setting “area occupied by deposited lipid in whole area of aorta, TMG 800 mg/head/day in feed, 27th week, control 64.6±3.9, p < 0.05”, the “Surface involvement (%)” value turned out to be 52.4 ± 4.7 %.
